According to patent US8541670B2, “Compositions and methods for inhibiting tumor cell growth” (priority 2007, dated 2013):
Where no end group is shown, it is not given here.

Tested on: N2a cells
Experiment: MTT cell proliferation assay
Assay type: cell-based
Description: In histogram series 2, treatments were removed after 24 hours and cells were incubated for another 24 hours without treatment. […] Mitochondrial activity (reflecting cellular growth and viability) in the presence of ZaTa and ZaTa variants (ZaTa T10D, ZaTa T8D, ZaTa T14R, and ZaTa Y17T) was evaluated by measuring the optical density (“OD”) at 490 nm on a plate reader. ZaTa T10D refers to a ZaTa polypeptide variant in which the Threonine (T) at position 10 of SEQ ID NO: 60 is substituted by an Aspartic Acid (D). ZaTa T8D refers to a ZaTa polypeptide variant in which the Threonine (T) at position 8 of SEQ ID NO: 60 is substituted by an Aspartic Acid (D). ZaTa T14R refers to a ZaTa polypeptide variant in which the Threonine (T) at position 14 of SEQ ID NO: 60 is substituted by an Arginine (R). ZaTa Y17T refers to a ZaTa polypeptide variant in which the Tyrosine (Y) at position 17 of SEQ ID NO: 60 is substituted by an Threonine (T).
AKT affects a network that positively regulates G1/S cell cycle progression through several mechanisms that involve the expression and subcellular localization of the CDK inhibitor p27^Kip1 (Blain and Massague (2002) Nat. Med. 8:1076-1078; Liang, et al. (2002) supra; Shin, et al. (2002) supra; Viglietto, et al. (2002) supra). Based on these studies, the effect of ZaTa peptide on cell proliferation was assessed. […] Capturing live images of cultured N2a cells in the presence of different concentrations of the ZaTa peptide confirmed an obvious reduction in the number of dividing cells.
Based on the importance of the C-terminal arm of ZaTa for its inhibitory action on AKT, it was determined whether the free hydroxyl groups on residues Thr-8, Thr-10 (equivalent to Thr-197 in full-length PKAc), Thr-14 and Tyr-17 were important for the biological activity of this peptide. Mutants of ZaTa peptide were synthesized by replacing Thr-8 or Thr-10 residues with Asp (ZaTa^T8D and ZaTa^T10D, respectively) as an amino acid with a negatively charged side chain. Mutants of ZaTa with the hydrophilic positively charged amino acid Arg at either position Thr-14 or Tyr-17 (ZaTa^T14R and ZaTa^Y17R, respectively) were also synthesized. […] The inhibitory effect of ZaTa peptide on cell proliferation was reversible, to a large extent, after the removal of ZaTa treatment (FIG. 3, histogram series 2).
Cells (5×10^3) were incubated in 96-well plates in the presence of different concentrations of the ZaTa peptide, control peptide or DMSO as vehicle. Media was removed at different time intervals and replaced with media containing MTT (5 mg/mL), and incubated for one hour at 37° C. […] The activity of the mitochondria, reflecting cellular growth and viability, was evaluated by measuring the optical density at 490 nm on a plate reader.

AKRVKGRTWTLCGTPEY [ZaTa]
dose causing significant decrease in the number of live cells (as low as): 2 µM | number of live cells 24 hours after removal of treatment versus DMSO vehicle (10 μM, 24 hours treatment then 24 hours without): no significant differences | number of live cells, MTT (different concentrations): dose-dependent decrease in the number of live cells
